Laboratory results reported in patent US20090029972A1, “Dibenzodiazepinone Analogues, Processes for Their Production and Their Use as Pharmaceuticals” (Ecopia BioSciences Inc, priority 2004, published 2009).
Entries after “also recorded” stand apart in the source; their conditions may differ.

What was measured:
[1] = tested on: C6 glioblastoma; experiment: In vivo efficacy in glioma model, first series (treatment 24 hrs after inoculation); design: species or system Mus musculus nude mice; details: all treated groups (10-30 mg/kg i.p.), Anova and Dunnett's test
Description: The aim of this study was to test whether Compounds 1 and 2 prevent or delay tumor growth in C6 glioblastoma cell-bearing mice, and to determine an effective dosage regimen.
Animal experiments were performed according to ethical guidelines of animal experimentation (Charte du comité d′éthique du CNRS, juillet 2003) and the English guidelines for the welfare of animals in experimental neoplasia (WORKMAN, P., […], P., BALKWILL, F., et al. (1998). United Kingdom Coordinating Committee on Cancer Research (UKCCCR) Guidelines for the welfare of animals in experimental neoplasia (Second Edition, July 1997; British Journal of Cancer, 77:1-10). Any dead or apparently sick mice were promptly removed and replaced with healthy mice. Sick mice were euthanized upon removal from the cage. […]
(§1) Tumor Cell Line: The C6 cell line was cloned from a rat glial tumor induced by N-nitrosomethyurea (NMU) according to Premont et al. (Premont J, Benda P, Jard S., [3H] norepinephrine binding by rat glial cells in culture. Lack of correlation between binding and adenylate cyclase activation. Biochim Biophys Acta. 1975 Feb. 13; 381(2):368-76.) after series of alternate culture and animal passages. […] The cells were counted in a hemocytometer and their viability assessed by 0.25% trypan blue exclusion. […]

[2] = Pharmacokinetic profiles, plasma; format: in vivo, female Crl: CD1 mice; details: female, Crl: CD1, mouse, ip, 30 mg/kg
Description: Compounds 1 and 2 were separately dissolved in ethanol (5%), Polysorbate 80 (15%), PEG 400 (5%) and dextrose (5%) at a final concentration of 6 mg/ml (for all parenteral administration routes). For oral […], Compound 1 was solubilized in Cremophor® EL/Ethanol (50%:50%) at a final concentration of 6 mg/ml. Prior to dosing, animals (female Crl: CD1 mice; 6 weeks of age, 22-24 g) were weighed, randomly selected and assigned to the different treatment groups. Compound 1 was administered by the intravenous (iv), subcutaneous (sc), intraperitoneal (ip), or oral (po) route to the assigned animals. Compound 2 was administered by the intravenous (iv), or intraperitoneal (ip) route to the assigned animals. […] Samples were analysed by LC/MS/MS.
Plasma values of Compounds 1 and 2 falling below the limit of quantitation (LOQ) were set to zero.
The following pharmacokinetic parameters were calculated: area under the plasma concentration versus time curve from time zero to the last measurable concentration time point (AUC0-t), area under the plasma concentration versus time curve extrapolated to infinity (AUCinf), maximum observed plasma concentration (Cmax), time of maximum plasma concentration (tmax), apparent first-order terminal elimination rate constant (kel), apparent first-order terminal elimination half-life will be calculated as 0.693/kel (t1/2). […]

[3] = in vivo; details: CD-1 nu/nu, mouse, iv
[4] = tested on: C6 glioblastoma; experiment: In vivo efficacy in glioma model, second series (treatment from day 10); design: species or system Mus musculus nude mice
Excerpt: The aim of this study was to test whether Compounds 1 and 2 prevent or delay tumor growth in C6 glioblastoma cell-bearing mice, and to determine an effective dosage regimen. […]
as §1
In a second series of experiments, treatment started at day 10 following inoculation of C6 cells when tumors became palpable (around 100 to 200 mm^3). […] Tumor volume was measured every second day until the end of the treatment using callipers. […]

[5] = for several days post-injection, ip and iv
[6] = tested on: HT-29, SF268, MDA-MB-231 and PC-3 cell lines; experiment: In vitro cytotoxic activity, four cell lines together (average, comparison); format: cell-based; details: for anticancer activity compared with Compound 1: Table 12 cell lines
Description: (§2) Compounds were dissolved at 10 mM in DMSO. Dilution in vehicle to concentrations of 30, 10, 3, 1 and 0.3 μM were prepared immediately before assays. Depending on the cell line's growth characteristics, 4000-10000 cells were plated in two 96-wells pates (day 0) and incubated for 16 hours. The following day, propidium iodide was added to one of the two plates and fluorescence measured (Tz). Test compounds were added to the second plate, as well as vehicle control, and cells further incubated for 96 hours. Each compound was tested at each concentration and in triplicates. The equivalent cell number was determined after adding propidium iodide by measuring the signal by fluorescence (C for control).

[7] = tested on: SF268 (CNS); experiment: In vitro cytotoxic activity GI50, method (a), SF-268; format: cell-based; details: Homo sapiens, 96 hours incubation, propidium iodide
Description: as §2

[8] = tested on: PC-3 (prostate adenocarcinoma); experiment: In vitro cytotoxic activity GI50, method (a), PC-3; format: cell-based; details: 96 hours incubation, propidium iodide
Description: as §2

[9] = tested on: MDA-MB-231 (mammary gland adenocarcinoma); experiment: In vitro cytotoxic activity GI50, method (a), MDA-MB-231; format: cell-based; details: Homo sapiens, 96 hours incubation, propidium iodide
Description: as §2

[10] = tested on: HT-29 (colorectal carcinoma); experiment: In vitro cytotoxic activity GI50, method (a), HT-29; format: cell-based; details: Homo sapiens, 96 hours incubation, propidium iodide
Description: as §2

Structure (SMILES): CC(C)=CCC/C(C)=C/CC/C(C)=C/CN1C(=O)c2cccc(O)c2Nc2c(O)cc(O)cc21 [Compound 1, 10-farnesyl-4,6,8-trihydroxy-5,10-dihydrodibenzo[b,e][1,4]diazepin-11-one]
- mean value of the tumor volume of treated groups vs saline group [1]: significantly reduced
- AUC [2]: 9.5 µM·h
- MTD [3]: 150 mg/kg
- Histological analysis of tumor sections ([4]; 20-30 mg/kg, FIG. 3): cell density of tumor treated with Compound 1 appears decreased; also recorded: cell density was decreased and the nuclei of remaining tumor cells appeared larger and pycnotic
- mean value of the tumor volume of treated groups vs saline group ([4]; all treated groups (20-30 mg/kg i.p.), Anova and Dunnett's test): significantly reduced

Structure (SMILES): CC(C)=CCC/C(C)=C/CC/C(C)=C/CN1C(=O)c2cccc(O)c2N(C)c2c(O)cc(O)cc21 [Compound 2, 10-farnesyl-4,6,8-trihydroxy-5-methyl-5,10-dihydro-dibenzo[b,e][1,4]diazepin-11-one]
- weight losses [5]: about 7%
- MTD [3]: ≥ 100 mg/kg

Structure (SMILES): CC(C)CCCC(C)CCCC(C)CCN1C(=O)c2cccc(O)c2Nc2c(O)cc(O)cc21 (stereo not drawn) [Compound 23, 10-(3,7,11-trimethyldodecyl)-4,6,8-trihydroxy-5,10-dihydro-dibenzo[b,e][1,4]diazepin-11-one]
- anticancer activity compared with Compound 1 [6]: generally more active than Compound 1

Structure (SMILES): CC(C)=CCC/C(C)=C/CC/C(C)=C/CN1C(=O)c2cccc(O)c2Nc2c1cc(O)c(Br)c2O [Compound 24, 10-(farnesyl)-7-bromo-4,6,8-trihydroxy-5,10-dihydro-dibenzo[b,e][1,4]diazepin-11-one]
- anticancer activity compared with Compound 1 [6]: generally more active than Compound 1

Structure (SMILES): CC(=O)Oc1cc(OC(C)=O)c2c(c1)N(C/C=C(\C)CC/C=C(\C)CCC=C(C)C)C(=O)c1cccc(OC(C)=O)c1N2 [Compound 25, 4,6,8-triacetoxy-10-farnesyl-5,10-dihydro-dibenzo[b,e][1,4]diazepin-11-one]
- GI50 [7]: 1.95 µM
- GI50 [8]: 1.2 µM
- anticancer activity compared with Compound 1 [6]: generally more active than Compound 1
- GI50 ([6]; average of four cell lines, method (a)): 3.82 µM
- GI50 [9]: 2.79 µM
- GI50 [10]: 9.33 µM
